Data from paper PMC4667793 (Journal of medicinal chemistry, 2015).
Several values for one entry are separate records, joined by “and”; a condition that tells them apart may be missing. Equal values may be shown once. Where a name gives a salt, the structure may show the parent alone.

Legend:
[1] = tested on: MDR-TB and XDR-TB strains; details: ten MDR-TB and XDR-TB strains; cited from earlier work
[2] = target: T1, MtBPL (Mycobacterium tuberculosis, UniProt I6YFP0); details: for -TΔS: calculated from ΔG (displacement) and ΔH (direct titration); for ΔH: direct titration ITC, 25 °C
T1 sequence (I6YFP0 whole entry, looked up): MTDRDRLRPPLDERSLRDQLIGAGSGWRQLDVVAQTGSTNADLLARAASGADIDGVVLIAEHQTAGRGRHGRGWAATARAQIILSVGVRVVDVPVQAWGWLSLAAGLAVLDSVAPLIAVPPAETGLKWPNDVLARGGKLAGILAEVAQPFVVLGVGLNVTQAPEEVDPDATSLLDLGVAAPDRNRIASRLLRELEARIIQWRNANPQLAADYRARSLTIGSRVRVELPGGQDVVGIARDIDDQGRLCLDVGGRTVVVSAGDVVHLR

[3] = target: T1, MtBPL; details: for ΔG: from K of displacement ITC, 298 K
[4] = tested on: M. tuberculosis H37Rv; assay: microbe, parasite or virus in culture; details: Mycobacterium tuberculosis
[5] = cyclonucleoside formation or decomposition at room temperature
[6] = target: T1, MtBPL; assay: biochemical; details: read-out: ΔTm
[7] = target: T1, MtBPL; assay: biochemical

Compound | MIC [1] | -TΔS [2] | ΔH [2] | ΔG [3] | MIC90 [4] | chemical stability [5] | fold more potent than 14 (KD) [3] | ΔTm at 43 µM [6] | Kd [7]
Nc1ncnc2c1ncn2[C@@H]1O[C@H](CNS(=O)(=O)NC(=O)CCCC[C@@H]2SC[C@@H]3NC(=O)N[C@@H]32)[C@@H](O)[C@H]1O [Compound 14, 5′-[N-(D-biotinoyl)sulfamoyl]amino-5′-deoxyadenosine triethylammonium salt] | 0.16 to 0.625 µM | 6.6 ± 0.1 kcal/mol | -18.9 ± 0.1 kcal/mol | – | – | – | – | – | –
CCN(CC)CC.Nc1ncnc2c1ncn2[C@@H]1C[C@H](CNS(=O)(=O)NC(=O)CCCC[C@@H]2SC[C@@H]3NC(=O)N[C@@H]32)[C@@H](O)[C@H]1O [Compound 28] | – | 7.8 ± 0.2 kcal/mol | -20.2 ± 0.2 kcal/mol | -12.4 kcal/mol and -12.4 ± 0.0 kcal/mol | – | – | – | – | –
CCN(CC)CC.Nc1ncnc2c1ncn2[C@H]1C=C[C@@H](CNS(=O)(=O)NC(=O)CCCC[C@@H]2SC[C@@H]3NC(=O)N[C@@H]32)C1 [Compound 34] | – | 10.3 ± 0.2 kcal/mol | -22.1 ± 0.2 kcal/mol | -11.8 ± 0.2 kcal/mol | – | – | – | – | –
CCN(CC)CC.Nc1ncnc2c1ncn2[C@H]1CC[C@@H](CNS(=O)(=O)NC(=O)CCCC[C@@H]2SC[C@@H]3NC(=O)N[C@@H]32)C1 [Compound 36] | – | 10.7 ± 0.4 kcal/mol | -23.5 ± 0.4 kcal/mol | -12.6 ± 0.2 kcal/mol | – | – | – | – | –
CCN(CC)CC.[N-]=[N+]=N[C@@H]1[C@H](O)[C@@H](CNS(=O)(=O)NC(=O)CCCC[C@@H]2SC[C@@H]3NC(=O)N[C@@H]32)O[C@H]1n1cnc2c(N)ncnc21 [Compound 46] | – | 10.9 ± 0.3 kcal/mol | -23.2 ± 0.2 kcal/mol | -12.3 ± 0.6 kcal/mol | – | – | – | – | –
CCN(CC)CC.Nc1ncnc2c1ncn2[C@@H]1O[C@H](CNS(=O)(=O)NC(=O)CCCC[C@@H]2SC[C@@H]3NC(=O)N[C@@H]32)[C@@H](O)[C@H]1N [Compound 47] | – | 6.5 ± 0.2 kcal/mol | -19.1 ± 0.1 kcal/mol | -12.6 ± 1.0 kcal/mol | – | – | – | – | –
[N-]=[N+]=N[C@H]1[C@H](O)[C@@H](COS(=O)(=O)NC(=O)CCCC[C@@H]2SC[C@@H]3NC(=O)N[C@@H]32)O[C@H]1n1cnc2c(N)ncnc21 [Compound 57, 9-{2′-Azido-5′-O-[N-(D-biotinoyl)sulfamoyl]-2′-deoxy-β-D-arabinofuranosyl}adenine triethylammonium salt] | – | 14.9 ± 0.1 kcal/mol | – | -14.4 ± 0.2 kcal/mol | > 100 µM | resisted any cyclonucleoside formation | 32 fold | 17 ± 1 °C | 0.027 nM
CCN(CC)CC.Nc1ncnc2c1ncn2[C@@H]1O[C@H](CNS(=O)(=O)NC(=O)CCCC[C@@H]2SC[C@@H]3NC(=O)N[C@@H]32)[C@@H](O)[C@H]1F [Compound 63, 5′-[N-(D-Biotinoyl)sulfamoyl]amino-2′,5′-dideoxy-2′-fluoroadenosine triethylammonium salt] | – | 11.8 ± 0.5 kcal/mol | -24.3 kcal/mol and -24.3 ± 0.5 kcal/mol | -12.6 ± 0.3 kcal/mol | – | – | – | – | –
CCN(CC)CC.Nc1ncnc2c1ncn2[C@@H]1O[C@H](COS(=O)(=O)NC(=O)CCCC[C@@H]2SC[C@@H]3NC(=O)N[C@@H]32)[C@@H](O)[C@@H]1F [Compound 69, 9-{5′-O-[N-(D-Biotinoyl)sulfamoyl]-2′-deoxy-2′-fluoro-β-D-arabinofuranosyl}adenine triethylammonium salt] | – | 14.7 ± 0.5 kcal/mol | -28.4 kcal/mol and -28.4 ± 0.6 kcal/mol | -13.4 ± 0.0 kcal/mol | – | resisted any cyclonucleoside formation | – | – | –
CCN(CC)CC.C[C@@]1(O)[C@H](O)[C@@H](COS(=O)(=O)NC(=O)CCCC[C@@H]2SC[C@@H]3NC(=O)N[C@@H]32)O[C@H]1n1cnc2c(N)ncnc21 [Compound 73, 5′-O-[N-(D-Biotinoyl)sulfamoyl]-β-2'-methyladenosine triethylammonium salt] | – | 8.1 ± 0.5 kcal/mol | -20.3 ± 0.4 kcal/mol | -12.4 ± 0.4 kcal/mol | – | resisted any cyclonucleoside formation | – | – | –
CCN(CC)CC.Nc1ncnc2c1ncn2[C@H]1CNC[C@@H](COS(=O)(=O)NC(=O)CCCC[C@@H]2SC[C@@H]3NC(=O)N[C@@H]32)O1 [Compound 82, (2′R,6′S)-9-[6′-({[N-(D-Biotinoyl)sulfamoyl]oxy}methyl)morpholin-2′-yl]adenine triethylammonium salt] | – | 5.9 ± 0.1 kcal/mol | -18.8 ± 0.0 kcal/mol | -12.9 ± 0.9 kcal/mol | – | – | – | – | –
CCN(CC)CC.Nc1ncnc2c1ncn2[C@@H]1O[C@H](CNS(=O)(=O)NC(=O)CCCC[C@@H]2SC[C@@H]3NC(=O)N[C@@H]32)C[C@H]1O [Compound 87, 5′-[N-(D-Biotinoyl)sulfamoyl]amino-3′,5′-dideoxyadenosine triethylammonium salt] | – | 8.8 ± 0.6 kcal/mol | -21.4 ± 0.5 kcal/mol | -12.6 ± 0.1 kcal/mol | – | – | – | – | –
